Data reported in patent publication US8865967B2 (priority 2010, dated 2014).

How the values were obtained:
Type in all cases: cell-based
[1] = system: Fusarium verticillioides (FVE)
[2] = system: Fusarium graminearum (FGR; isolate 73B ISU); conditions: for IC50 (ppm) High Salt Fgr: high salt: 1/2x liquid media plus 1 mM calcium chloride, 50 mM potassium chloride; for IC50 (ppm) Low Salt Fgr: low salt: 1/8x potato dextrose broth plus 0.25 mM calcium chloride, 12.5 mM potassium chloride
Diplodia maydis (DMA) = conditions: for IC50 (ppm) High Salt Dma: high salt: 1/2x liquid media plus 1 mM calcium chloride, 50 mM potassium chloride; for IC50 (ppm) Low Salt Dma: low salt: 1/8x potato dextrose broth plus 0.25 mM calcium chloride, 12.5 mM potassium chloride
[3] = system: Colletotrichum graminicola (CGR; isolate Carroll-IA-99); conditions: for IC50 (ppm) High Salt Cgr: high salt: 1/2x liquid media plus 1 mM calcium chloride, 50 mM potassium chloride, Table 1; for IC50 (ppm) Low Salt Cgr: low salt: 1/8x Czapek-Dox broth plus 0.25 mM calcium chloride, 12.5 mM potassium chloride; for Antifungal activity (IC50 in ppm) against C. graminicola under high salt conditions: Table 2

Row | Substance | IC50 (ppm) High Salt Fve [1] [ppm] | IC50 (ppm) Low Salt Fve [1] [ppm] | IC50 (ppm) High Salt Fgr [2] | IC50 (ppm) Low Salt Fgr [2] [ppm] | IC50 (ppm) High Salt Dma (Diplodia maydis (DMA)) [ppm] | IC50 (ppm) Low Salt Dma (Diplodia maydis (DMA)) [ppm] | IC50 (ppm) High Salt Cgr [3] [ppm] | IC50 (ppm) Low Salt Cgr [3] [ppm] | Antifungal activity (IC50 in ppm) against C. graminicola under high salt conditions [3] [ppm]
1 | PP-PDF1-2CF-10F3: Pp-PDF1 variant from second shuffling round (RVCTKPSKFFRGLCVSDRNCTNACRKEGLPTGECKSKGFFNSVCVCKKPC; Synthetic sequence obtained from DNA shuffling of a plant sequence.) | 200 | 30 | 100 ppm | 15 | 25 | 15 | 0.6 | 1.5 | –
2 | Pp-PDF1-3CA-1A2: Pp-PDF1 variant from third shuffling round (RVCTKPSKFYRGLCVSDRDCTHACRKEGLPTGFCQSKGFFNSVCVCKKPC; Synthetic sequence obtained from DNA shuffling of a plant sequence.) | 200 | 30 | ^~100 ppm | 15 | 50 | 15 | 0.6 | 3 | –
3 | PP-PDF1-1F-12H3: Pp-PDF1 variant from first shuffling round (RVCTKPSKFFKGLCVSDDDCAHACRKEGLATGKCQKKGFFNRVCVCKKPC; Synthetic sequence obtained from DNA shuffling of a plant sequence.) | >200 | – | 3 ppm | – | 200 | – | 10 | – | –
4 | Pp-PDF1-3CA-1B2: Pp-PDF1 variant from third shuffling round (RVCTKPSKFYRGLCVSDRDCTHACRKEGLPIGECKSKGFFNSVCVCKKPC; Synthetic sequence obtained from DNA shuffling of a plant sequence.) | 200 | 30 | ^~100 ppm | 15 | 50 | 15 | 0.8 | 2 | –
5 | Pp-PDF1-3CA-1 E6: Pp-PDF1 variant from third shuffling round (RVCTKPSKFYRGLCVSDRDCTNACRKEGLPTGFCQSKGFFNSVCVCKKPC; Synthetic sequence obtained from DNA shuffling of a plant sequence.) | – | – | ^~100 ppm | – | – | – | 0.6 | – | –
6 | Pp-PDF1-2CA-1A6: Pp-PDF1 variant from second shuffling round (RVCKKPSKFFKGLCLSDRDCTNACRKEGLATGECQSKGFFNSVCVCRKPC; Synthetic sequence obtained from DNA shuffling of a plant sequence.) | – | – | – | – | – | – | 1 | – | –
7 | PP-PDF1-2CF-2D8: Pp-PDF1 variant from second shuffling round (RVCTKPSKFYKGLCVSDRDCTNACRKEGLPTGFCQSKGFFNSVCVCKKPC; Synthetic sequence obtained from DNA shuffling of a plant sequence.) | 200 | 30 | 100 ppm | 15 | 50 | 15 | 0.6 | 0.3 | –
8 | Pp-PDF1 2CA 5H4: Pp-PDF1 variant from second shuffling round (RVCKKPSKFFKGLCLSDRDCTNACRKEGLATGECQSKGFFNSVCVCEKPC; Synthetic sequence obtained from DNA shuffling of a plant sequence.) | – | – | – | – | – | – | 1 | – | –
9 | Pp-PDF1 (4B11): Pp-PDF1 variant identified by DNA shuffling (RVCTKPSKFFKGMCVSDNNCTHACRKEGLPTGFCQSKGFFNSVCVCKKPC; Synthetic sequence obtained from DNA shuffling of a plant sequence.) | >200 | – | >200 ppm | – | 12.5 | – | 0.8 | – | 1
10 | Pp-PDF1-4CB-12G9: Pp-PDF1 variant from fourth shuffling round (RVCTKPSKFFRGLCVSDRQCTNACRKEGLPIGECQSKGFFNSVCVCRKPC; Synthetic sequence obtained from DNA shuffling of a plant sequence.) | >200 | – | 50 ppm | – | 25 | – | 0.25 | 0.25 | –
11 | Pp-PDF1-4CB-6E9: Pp-PDF1 variant from fourth shuffling round (RVCTKPSKFFKGLCISDRQCTNACRKEGLPTGECQPKGFFNSVCVCRKPC; Synthetic sequence obtained from DNA shuffling of a plant sequence.) | >200 | – | 150 ppm | – | 100 | – | 0.25 | 0.4 | –
12 | PP-PDF1-1F-7H6: Pp-PDF1 variant from first shuffling round (RVCEKPSKFFKGMCVRDRDCTVACKKEGLATGFCQKKGFFNFVCVCKKPC; Synthetic sequence obtained from DNA shuffling of a plant sequence.) | >200 | – | 3 ppm | – | 200 | – | 10 | – | –
13 | Pp-PDF1-2CE-4A7: Pp-PDF1 variant from second shuffling round (RVCTKPSKFFKGLCVSDNNCTHACRTEGLPIGFCQSKGFFNSVCVCKKPC; Synthetic sequence obtained from DNA shuffling of a plant sequence.) | 200 | – | 5.6 ppm | – | 25 | – | 0.8 | – | –
14 | Pp-PDF1 (C2B5): Pp-PDF1 variant identified by DNA shuffling (RVCEKPSKFFKGMCVSDRNCTNACRKEGLPTGFCQSKGFFNSVCVCKKPC; Synthetic sequence obtained from DNA shuffling of a plant sequence.) | – | – | – | – | – | – | – | – | 0.8
15 | Pp-PDF1-2CA-1H4: Pp-PDF1 variant from second shuffling round (RVCRKPSKFFKGLCLSDRDCTNACRKEGLATGECQSKGFFNSVCVCEKPC; Synthetic sequence obtained from DNA shuffling of a plant sequence.) | – | – | – | – | – | – | 1 | – | –
16 | Pp-PDF1-4CB-6E6: Pp-PDF1 variant from fourth shuffling round (RVCTKPSKFYKGLCISDRDCTNACRKEGLPIGFCKSKGFFNSVCVCRKPC; Synthetic sequence obtained from DNA shuffling of a plant sequence.) | >200 | – | 150 ppm | – | 100 | – | 0.25 | 0.25 | –
17 | Pp-PDF1-3CA-2D3: Pp-PDF1 variant from third shuffling round (RVCTKPSKFFRGLCVSDNDCTNACRKEGLPTGFCQSKGFFNSVCVCKKPC; Synthetic sequence obtained from DNA shuffling of a plant sequence.) | 200 | 30 | ^~100 ppm | 15 | 25 | 6 | 0.8 | 0.3 | –
18 | Pp-PDF1-1C-6D3: Pp-PDF1 variant from first shuffling round (RVCEKPSKFFKGLCVRDRDCAVACKKEGLASGFCQSKGFFNSVCVCKKPC; Synthetic sequence obtained from DNA shuffling of a plant sequence.) | – | – | – | 4.5 | – | – | 12 | 0.6 | –
19 | Pp-PDF1: Picramnia pentandra plant defensin, parent polypeptide used in the DNA shuffling (KVCTKPSKFFKGLCGADRDCTVACKKEGLATGFCQKKGFFNFVCVCRKPC; listed as Picramnia pentandra) [reference compound] | 50 | 2 | 5 ppm | 2 | 50 | 7.5 | 15 | 3 | 15
20 | Pp-PDF1-3CA-1A7: Pp-PDF1 variant from third shuffling round (RVCTKPSKFFRGLCVSDRDCTNACRKEGLPIGFCQSKGFFNSVCVCKKPC; Synthetic sequence obtained from DNA shuffling of a plant sequence.) | 200 | 30 | ^~100 ppm | 15 | 25 | 10 | 0.6 | 0.8 | –
21 | Pp-PDF1-1F-1C5: Pp-PDF1 variant from first shuffling round (KVCTKPSKFFKGMCVRDRDCTNACRKEGLASGFCQKKGFFNFVCVCRKPC; Synthetic sequence obtained from DNA shuffling of a plant sequence.) | >200 | – | 1.5 ppm | – | 50 | – | 10 | – | –
